# Data published in patent publication US20090325959A1 (priority 2008, published 2009).
# Read-outs that look alike come from different tables or passages of the source.
# Assays:
# NIH/3T3 cells = assay: NIH/3T3 cell morphology assay (actin cytoskeleton disruption); assay type: cell-based; settings: score 0 (no effect) to 4 (complete disruption) of the actin cytoskeleton; 60 minutes
# Protocol: NIH/3T3 cells were grown in DMEM-H containing glutamine and 10% Colorado Calf Serum. Cells were passaged regularly prior to reaching confluence. Eighteen to 24 hours prior to experimentation, the cells were plated onto Poly-L-Lysine-coated glass bottom 24-well plates. On the day of experimentation, the cell culture medium was removed and was replaced with the same medium containing from 10 nM to 25 μM of the test compound, and the cells were incubated for 60 minutes at 37° C. The culture medium was then removed and the cells were washed with warmed PBS and fixed for 10 minutes with warmed 4% paraformaldehyde. The cells were permeabilized with 0.5% Triton-X, stained with TRITC-conjugated phalloidin and imaged using a Nikon Eclipse E600 epifluorescent microscope to determine the degree of actin disruption. Results were expressed as a numerical score indicating the observed degree of disruption of the actin cytoskeleton at the test concentration, ranging from 0 (no effect) to 4 (complete disruption), and were the average of at least 2 determinations.
# ROCK1 = molecular target: T1, ROCK1 (Homo sapiens, UniProt Q13464); assay: Rho kinase inhibition assay (IMAP fluorescence polarization), ROCK1; assay type: biochemical;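 also: kinase reaction run 60 min at room temperature, then phosphorylated substrate captured on IMAP beads for 30 min, with fluorescence polarization read in mP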
# T1 construct: purchased Upstate/Chemicon 14-601
# Protocol: (§1) Following the pre-incubation, 10 μM ATP was added to initiate the reaction. After 60 minutes at room temperature, Molecular Devices IMAP™ binding solution was added to bind phosphorylated substrate. After 30 minutes of incubation in the presence of the IMAP™ beads, the fluorescence polarization was read and the ratio was reported as mP. IC50 values for compounds and EC50 values for ATP were calculated using the Prism software from Graphpad.
# ROCK2 = molecular target: T2, ROCK2 (Homo sapiens, UniProt O75116); assay: Rho kinase inhibition assay (IMAP fluorescence polarization), ROCK2; assay type: biochemical;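 also: kinase reaction started with 10 µM ATP and run 60 min at room temperature, then phosphorylated substrate captured on IMAP beads for 30 min and fluorescence polarization read in mP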
# T2 construct: purchased Upstate/Chemicon 14-451
# Protocol: as §1
# human neutrophils = assay: Human neutrophil chemotaxis induced by fMLP (modified Boyden chamber); assay type: cell-based
# Description: This assay is an in vitro assay of neutrophil chemotaxis that can be used to evaluate the ability of Rho Kinase inhibitor compounds of Formula I or II to inhibit the migration of human neutrophils, an inflammatory cell that has been implicated in the pathophysiology of allergic conjunctivitis.
# Peripheral blood from healthy human volunteers was collected and the neutrophils were isolated by Ficoll-paque density centrifugation followed by dextran sedimentation and hypotonic lysis of the red blood cells. Neutrophil chemotaxis was assessed using a modified Boyden Chamber (Neuroprobe, 96-well) with a 3 μm pore polycarbonate membrane. The ability of the tested compounds to block chemotaxis induced by a 1 μM fMLP challenge during a one hour incubation at 37° C. with 5% CO2 was assessed in a dose response manner.
# Akt3 human enzyme = molecular target: T3, Akt3 human enzyme (Homo sapiens, UniProt Q9Y243); assay: Akt3 inhibition assay (IMAP FP); assay type: biochemical;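 also: kinase reaction run 60 min at room temperature after 30 µM ATP start, phosphorylated substrate captured on IMAP beads and read as fluorescence polarization (mP)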
# T3 construct: purchased Upstate Chemicon 14-502
# p70S6K human enzyme = molecular target: T4, p70S6K human enzyme (Homo sapiens, UniProt P23443, T412E); assay: p70S6K inhibition assay (IMAP FP); assay type: biochemical;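 also: kinase reaction run at room temperature, phosphorylated substrate captured on IMAP beads and read as fluorescence polarization in mP, IC50 then converted to Ki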
# T4 construct: purchased Upstate Chemicon 14-486
# [1] = Rat oral pharmacokinetics (plasma); assay type: in vivo; settings: 20-30 μmol/kg; for half-life: mean n = 3, read-out: t½ (converted)
# Protocol: Plasma (EDTA K2 anticoagulant) was collected from male, cannulated, CD Sprague Dawley rats to determine the pharmacokinetics of formulations containing compound inhibitors of Rho kinase. Each animal was dosed orally with a 4 ml/kg solution or suspension of each test compound in 10 mM acetate buffered saline, pH 4.5 at a final concentration range of 20-30 μmol/kg. Blood was collected at 0.25, 0.5, 1, 2, 4, 6, 8, and 24 hours. Plasma samples were assayed for the concentration of the test compound using an on-line, solid phase extraction LC/MS/MS analysis system.
# Samples were analyzed on a QSTAR Elite, hybrid quadrupole time-of-flight mass spectrometer (Applied Biosystems, Framingham, Mass.) coupled with a Symbiosis Pharma integrated, on-line SPE-HPLC system (Spark Holland Inc., Plainsboro, N.J.). Analyst QS 2.0 software was used for instrument control, data acquisition and processing. […] Mobile Phase A consisted of 0.1% ammonium hydroxide in water and Mobile Phase B consisted of 0.1% formic acid in acetonitrile. Pharmacokinetic analyses were performed using WinNonlin software version 5.2 (Pharsight Corporation, Mountain View, Calif.).
# As determined from the plasma concentration versus time curves, the time to peak and peak exposure are represented by the values Tmax and Cmax, respectively. The AUC values (nM*hr) shown were calculated as the areas under the plasma concentration versus time curves from time zero through the time of the last observable value and represent the total exposure of the compound over the course of the study. Half-life values or the amount of time required for the plasma levels of the compound to decline to half the initial value are represented as t½.
# [2] = Compound plasma concentrations in unsensitized mice at 15 min post administration; assay type: in vivo; settings: mouse, 15 μmol/kg; mean compound plasma concentration in mice at 15 minutes post oral administration; read-out: Mouse Oral PK
# [3] = test system: A-10 rat thoracic aorta cells; assay: PDGF-stimulated smooth muscle cell proliferation assay (BrdU incorporation); assay type: cell-based; settings: A-10 cells, 10 ng/mL PDGF, BrdU incorporation, percent of total challenge-stimulated proliferation; for Percent of PDGF Induced Proliferation at 1 μM Avg: 1 μM test compound; for Percent of PDGF Induced Proliferation at 10 μM Avg: 10 μM test compound;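 as to all read-outs here: cells kept in serum-free medium, BrdU allowed to incorporate for 24 h, then incorporated label detected fluorometrically with an anti-BrdU antibody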
# [4] = 10 μM ATP, read-out: ROCK2 Ki, Avg
# [5] = Neutrophil, 1 h, 1 μM fMLP challenge, one hour, read-out: Chemotaxis Avg. IC50
# [6] = average IC50 for inhibition of fMLP-induced neutrophil chemotaxis, read-out: Chemotaxis IC50
# [7] = 30 μM ATP, Ki=IC50/(1+([ATP Challenge]/EC50 ATP)), read-out: Akt3 Ki, Avg
# [8] = 30 μM ATP, Ki=IC50/(1+([ATP Challenge]/EC50 ATP)), read-out: p70S6K Ki, Avg
# [9] = average Ki, read-out: p70S6K Ki
# [10] = male, CD Sprague Dawley, mean n = 3
# [11] = male, CD Sprague Dawley, mean n = 3, read-out: Cmax
# [12] = male, CD Sprague Dawley, mean n = 3, read-out: Tmax
# T3 sequence (Q9Y243 whole entry): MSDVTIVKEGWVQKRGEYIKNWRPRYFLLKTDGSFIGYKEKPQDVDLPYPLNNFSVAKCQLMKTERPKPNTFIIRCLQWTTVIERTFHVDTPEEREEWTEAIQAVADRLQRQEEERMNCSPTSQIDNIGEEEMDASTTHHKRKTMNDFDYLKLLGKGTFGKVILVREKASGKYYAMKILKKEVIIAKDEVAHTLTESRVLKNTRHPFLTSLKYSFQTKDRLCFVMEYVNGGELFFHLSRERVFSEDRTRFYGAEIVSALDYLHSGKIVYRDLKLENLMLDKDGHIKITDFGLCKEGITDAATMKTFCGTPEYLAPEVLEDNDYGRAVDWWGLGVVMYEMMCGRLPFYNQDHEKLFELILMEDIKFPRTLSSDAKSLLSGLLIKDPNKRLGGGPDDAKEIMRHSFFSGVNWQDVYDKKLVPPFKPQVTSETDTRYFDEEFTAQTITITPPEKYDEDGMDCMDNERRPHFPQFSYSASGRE
# T2 sequence (O75116 11-552 limits assumed): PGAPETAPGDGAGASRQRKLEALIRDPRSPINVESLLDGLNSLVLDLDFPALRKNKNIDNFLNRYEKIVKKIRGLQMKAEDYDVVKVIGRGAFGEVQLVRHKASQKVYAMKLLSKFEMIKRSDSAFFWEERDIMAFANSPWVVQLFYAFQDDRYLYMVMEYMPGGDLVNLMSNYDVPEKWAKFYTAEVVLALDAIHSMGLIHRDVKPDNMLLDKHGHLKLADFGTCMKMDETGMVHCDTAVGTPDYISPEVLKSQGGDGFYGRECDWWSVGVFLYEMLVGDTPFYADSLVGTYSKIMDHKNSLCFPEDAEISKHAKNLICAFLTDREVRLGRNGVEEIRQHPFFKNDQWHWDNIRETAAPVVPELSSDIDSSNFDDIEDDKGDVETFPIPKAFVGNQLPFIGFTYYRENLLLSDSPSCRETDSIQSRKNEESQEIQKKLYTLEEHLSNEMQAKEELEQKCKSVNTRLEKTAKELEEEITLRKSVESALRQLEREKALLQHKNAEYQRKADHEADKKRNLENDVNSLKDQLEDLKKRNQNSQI
# T4 sequence (P23443 1-421 T412E limits assumed): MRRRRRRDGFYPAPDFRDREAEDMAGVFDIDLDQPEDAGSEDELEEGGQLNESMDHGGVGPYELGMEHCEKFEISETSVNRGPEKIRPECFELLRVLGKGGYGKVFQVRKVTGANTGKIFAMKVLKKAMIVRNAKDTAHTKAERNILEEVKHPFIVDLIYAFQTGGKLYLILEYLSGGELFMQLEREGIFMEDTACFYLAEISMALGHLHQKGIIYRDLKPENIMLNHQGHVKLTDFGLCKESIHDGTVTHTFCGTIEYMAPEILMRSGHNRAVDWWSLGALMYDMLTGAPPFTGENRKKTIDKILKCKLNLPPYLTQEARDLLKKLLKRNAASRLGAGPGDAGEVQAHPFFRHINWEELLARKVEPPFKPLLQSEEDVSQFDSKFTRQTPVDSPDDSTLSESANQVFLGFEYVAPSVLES
# T1 sequence (Q13464 17-535 limits assumed): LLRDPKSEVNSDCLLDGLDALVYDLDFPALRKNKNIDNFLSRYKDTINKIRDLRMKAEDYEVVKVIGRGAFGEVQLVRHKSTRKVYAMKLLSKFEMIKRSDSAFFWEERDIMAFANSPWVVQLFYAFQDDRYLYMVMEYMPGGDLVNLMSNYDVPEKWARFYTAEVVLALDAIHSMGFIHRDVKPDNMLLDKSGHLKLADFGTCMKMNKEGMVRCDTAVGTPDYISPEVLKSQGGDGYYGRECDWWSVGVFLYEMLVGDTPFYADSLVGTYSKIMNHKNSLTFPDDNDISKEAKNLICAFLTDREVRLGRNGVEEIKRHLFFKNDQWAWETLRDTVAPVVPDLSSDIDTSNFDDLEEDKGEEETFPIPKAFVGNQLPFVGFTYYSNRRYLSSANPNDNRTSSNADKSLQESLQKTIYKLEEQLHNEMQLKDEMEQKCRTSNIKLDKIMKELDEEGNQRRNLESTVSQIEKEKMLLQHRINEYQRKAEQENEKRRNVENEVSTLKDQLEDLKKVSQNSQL
structure (smiles),measurement,setting,value
"CS(=O)(=O)c1ccc(CN2CCC(Nc3ccc4[nH]ncc4c3)C2)cc1 (stereo not drawn) [Compound 1.004, N-(1-(4-(methylsulfonyl)benzyl)pyrrolidin-3-yl)-1H-indazol-5-amine]",Cell score at 1 μM,NIH/3T3 cells,1.8
"CSc1ccc(CN2CCCC(Nc3ccc4[nH]ncc4c3)C2)cc1 (stereo not drawn) [Compound 1.008, N-(1-(4-(methylthio)benzyl)piperidin-3-yl)-1H-indazol-5-amine]",Ki,"ROCK1; Avg, 10 μM ATP",30.5 nM
same,Ki,ROCK2; [4],3.9 nM
same,Cell score at 1 μM,NIH/3T3 cells,2
"Cc1ccc(CN2CCCC(Nc3ccc4[nH]ncc4c3)C2)c(C)c1 (stereo not drawn) [Compound 1.024, N-(1-(2,4-dimethylbenzyl)piperidin-3-yl)-1H-indazol-5-amine]",Cell score at 1 μM,NIH/3T3 cells,2.4
"OCc1ccc(CN2CCCC(Nc3ccc4[nH]ncc4c3)C2)cc1 (stereo not drawn) [Compound 1.025, (4-((3-(1H-indazol-5-ylamino)piperidin-1-yl)methyl)phenyl)methanol]",Cell score at 1 μM,NIH/3T3 cells,2
"C#Cc1ccc(CN2CCCC(Nc3ccc4[nH]ncc4c3)C2)cc1 (stereo not drawn) [Compound 1.034, N-(1-(4-ethynylbenzyl)piperidin-3-yl)-1H-indazol-5-amine]",Ki,"ROCK1; Avg, 10 μM ATP",36 nM
same,Ki,ROCK2; [4],5.3 nM
same,IC50,human neutrophils; [5],5600 nM
same,Cell score at 1 μM,NIH/3T3 cells,2
"OCCOc1cccc(CN2CCCC(Nc3ccc4[nH]ncc4c3)C2)c1 (stereo not drawn) [Compound 1.039, 2-(3-((3-(1H-indazol-5-ylamino)piperidin-1-yl)methyl)phenoxy)ethanol]",Ki,"ROCK1; Avg, 10 μM ATP",209 nM
same,Ki,ROCK2; [4],24.7 nM
same,Cell score at 1 μM,NIH/3T3 cells,2
"CS(=O)(=O)Cc1cccc(CN2CCCC(Nc3ccc4[nH]ncc4c3)C2)c1 (stereo not drawn) [Compound 1.041, N-(1-(3-(methylsulfonylmethyl)benzyl)piperidin-3-yl)-1H-indazol-5-amine]",Cell score at 1 μM,NIH/3T3 cells,2.5
"Oc1cccc(CN2CCCC(Nc3ccc4[nH]ncc4c3)C2)c1 (stereo not drawn) [Compound 1.046, 3-((3-(1H-indazol-5-ylamino)piperidin-1-yl)methyl)phenol]",Cell score at 1 μM,NIH/3T3 cells,2.5
"CS(=O)(=O)c1cccc(CN2CCCC(Nc3ccc4[nH]ncc4c3)C2)c1 (stereo not drawn) [Compound 1.048, N-(1-(3-(methylsulfonyl)benzyl)piperidin-3-yl)-1H-indazol-5-amine]",Cell score at 1 μM,NIH/3T3 cells,1.5
"CS(=O)(=O)Nc1cccc(CN2CCCC(Nc3ccc4[nH]ncc4c3)C2)c1 (stereo not drawn) [Compound 1.051, N-(3-((3-(1H-indazol-5-ylamino)piperidin-1-yl)methyl)phenyl)methanesulfonamide]",Ki,"ROCK1; Avg, 10 μM ATP",37.2 nM
same,Ki,ROCK2; [4],3.8 nM
same,Cell score at 1 μM,NIH/3T3 cells,2.5
"c1cc2cc(CN3CCCC(Nc4ccc5[nH]ncc5c4)C3)ccc2o1 (stereo not drawn) [Compound 1.052, N-(1-(benzofuran-5-ylmethyl)piperidin-3-yl)-1H-indazol-5-amine]",Cell score at 1 μM,NIH/3T3 cells,2.8
"Clc1ccc(CN2CCC(Nc3ccc4[nH]ncc4c3)C2)cc1Cl (stereo not drawn) [Compound 1.062, N-(1-(3,4-dichlorobenzyl)pyrrolidin-3-yl)-1H-indazol-5-amine]",Cell score at 1 μM,NIH/3T3 cells,2.3
"Cc1cccc(CN2CCCC(Nc3ccc4[nH]ncc4c3)C2)c1 (stereo not drawn) [Compound 1.066, N-(1-(3-methylbenzyl)piperidin-3-yl)-1H-indazol-5-amine]",Cell score at 1 μM,NIH/3T3 cells,2
"CCS(=O)(=O)Nc1cccc(CN2CCC[C@@H](Nc3ccc4[nH]ncc4c3)C2)c1 [Compound 1.123, (R)-N-(3-((3-(1H-indazol-5-ylamino)piperidin-1-yl)methyl)phenyl)ethanesulfonamide]",Ki,"ROCK1; Avg, 10 μM ATP",82.3 nM
same,Ki,ROCK1; average Ki,82.3 nM
same,Ki,ROCK2; [4],9.6 nM
same,Ki,"ROCK2; average Ki, read-out: ROCK2 Ki",9.6 nM
same,IC50,human neutrophils; [5],3050 nM
same,IC50,human neutrophils; [6],3100 nM
same,Ki,Akt3 human enzyme; [7],2410 nM
same,Ki,"Akt3 human enzyme; average Ki, read-out: Akt3 Ki",2410 nM
same,Ki,p70S6K human enzyme; [8],2810 nM
same,Ki,p70S6K human enzyme; [9],2810 nM
same,Vz_F,[1]; mean n = 3,14.8 L/kg
same,AUC(0-t),[1]; [10],2.06 µM·h
same,Cmax,[1]; [11],2040 nM
same,Tmax,[1]; [12],19.8 min
same,half-life,"[1]; male, CD Sprague Dawley",54 min
same,concentration at 15 min,[2],71 nM
"CCS(=O)(=O)Nc1cccc(CN2CCC[C@H](Nc3ccc4[nH]ncc4c3)C2)c1 [Compound 1.124, (S)-N-(3-((3-(1H-indazol-5-ylamino)piperidin-1-yl)methyl)phenyl)ethanesulfonamide]",Ki,"ROCK1; Avg, 10 μM ATP",64.5 nM
same,Ki,ROCK1; average Ki,64.5 nM
same,Ki,ROCK2; [4],3.3 nM
same,Ki,"ROCK2; average Ki, read-out: ROCK2 Ki",3.3 nM
same,IC50,human neutrophils; [5],3400 nM
same,IC50,human neutrophils; [6],3400 nM
same,Percent of PDGF Induced Proliferation at 1 μM Avg,[3],68.5%
same,Percent of PDGF Induced Proliferation at 10 μM Avg,[3],61.6%
same,Ki,Akt3 human enzyme; [7],7870 nM
same,Ki,"Akt3 human enzyme; average Ki, read-out: Akt3 Ki",7870 nM
same,Ki,p70S6K human enzyme; [8],3330 nM
same,Ki,p70S6K human enzyme; [9],3330 nM
same,Vz_F,[1]; mean n = 3,93.4 L/kg
same,AUC(0-t),[1]; [10],0.535 µM·h
same,Cmax,[1]; [11],415 nM
same,Tmax,[1]; [12],30 min
same,half-life,"[1]; male, CD Sprague Dawley",83.4 min
same,concentration at 15 min,[2],118 nM
"CCc1ccc(CN2CCC[C@@H](Nc3ccc4[nH]ncc4c3)C2)cc1 [Compound 1.136, (R)-N-(1-(4-ethylbenzyl)piperidin-3-yl)-1H-indazol-5-amine]",Ki,"ROCK1; Avg, 10 μM ATP",40.3 nM
same,Ki,ROCK1; average Ki,25.8 nM
same,Ki,ROCK2; [4],5.4 nM
same,Ki,"ROCK2; average Ki, read-out: ROCK2 Ki",5.1 nM
same,IC50,human neutrophils; [5],2600 nM
same,IC50,human neutrophils; [6],2600 nM
same,Ki,Akt3 human enzyme; [7],290 nM
same,Ki,"Akt3 human enzyme; average Ki, read-out: Akt3 Ki",290 nM
same,Ki,p70S6K human enzyme; [8],1240 nM
same,Ki,p70S6K human enzyme; [9],1240 nM
same,AUC (0-last),[1]; mean n = 3,BLQ
same,Cmax,[1]; mean n = 3,BLQ
same,Tmax,[1]; mean n = 3,BLQ
same,Vz_F,[1]; mean n = 3,BLQ
same,t½,[1]; mean n = 3,BLQ
"c1ccc(CN2CCC(Nc3cccc4cnccc34)C2)cc1 (stereo not drawn) [Compound 2.006, N-(1-benzylpyrrolidin-3-yl)isoguinolin-5-amine]",Cell score at 1 μM,NIH/3T3 cells,2.8
"Clc1ccc(CN2CCC(Nc3cccc4cnccc34)C2)cc1Cl (stereo not drawn) [Compound 2.016, N-(1-(3,4-dichlorobenzyl)pyrrolidin-3-yl)isoquinolin-5-amine]",Ki,"ROCK1; Avg, 10 μM ATP",101 nM
same,Ki,ROCK2; [4],42.4 nM
same,Cell score at 1 μM,NIH/3T3 cells,1.8
"COc1ccc(CN2CCC(Nc3cccc4cnccc34)C2)cc1 (stereo not drawn) [Compound 2.017, N-(1-(4-methoxybenzyl)pyrrolidin-3-yl)isoquinolin-5-amine]",Cell score at 1 μM,NIH/3T3 cells,2
"FC(F)(F)c1cccc(CN2CCC(Nc3cccc4cnccc34)C2)c1 (stereo not drawn) [Compound 2.018, N-(1-(3-(trifluoromethyl)benzyl)pyrrolidin-3-yl)isoquinolin-5-amine]",Cell score at 1 μM,NIH/3T3 cells,1.8
"CSc1ccc(CN2CC[C@@H](Nc3cccc4cnccc34)C2)cc1 [Compound 2.026, (R)-N-(1-(4-(methylthio)benzyl)pyrrolidin-3-yl)isoquinolin-5-amine]",Ki,"ROCK1; Avg, 10 μM ATP",38 nM
same,Ki,ROCK1; average Ki,38 nM
same,Ki,ROCK2; [4],13 nM
same,Ki,"ROCK2; average Ki, read-out: ROCK2 Ki",13 nM
same,IC50,"human neutrophils; Neutrophil, 1 h, read-out: Chemotaxis Avg. IC50",3800 nM
same,IC50,"human neutrophils; Neutrophil, read-out: Chemotaxis IC50",3800 nM
same,Percent of PDGF Induced Proliferation at 1 μM Avg,[3],74.5%
same,Percent of PDGF Induced Proliferation at 10 μM Avg,[3],52.0%
same,Ki,Akt3 human enzyme; [7],2080 nM
same,Ki,"Akt3 human enzyme; average Ki, read-out: Akt3 Ki",2080 nM
same,Ki,p70S6K human enzyme; [8],536 nM
same,Ki,p70S6K human enzyme; [9],536 nM
same,AUC (0-last),[1]; mean n = 3,BLQ
same,Cmax,[1]; mean n = 3,BLQ
same,Tmax,[1]; mean n = 3,BLQ
same,Vz_F,[1]; mean n = 3,BLQ
same,t½,[1]; mean n = 3,BLQ
same,concentration at 15 min,[2],629 nM
"OCCOc1cccc(CN2CC[C@@H](Nc3cccc4cnccc34)C2)c1 [Compound 2.039, (R)-2-(3-((3-(isoquinolin-5-ylamino)pyrrolidin-1-yl)methyl)phenoxy)ethanol]",Ki,"ROCK1; Avg, 10 μM ATP",18.8 nM
same,Ki,ROCK1; average Ki,18.8 nM
same,Ki,ROCK2; [4],6.7 nM
same,Ki,"ROCK2; average Ki, read-out: ROCK2 Ki",6.7 nM
same,IC50,human neutrophils; [5],1640 nM
same,IC50,human neutrophils; [6],1600 nM
same,Ki,Akt3 human enzyme; [7],1990 nM
same,Ki,"Akt3 human enzyme; average Ki, read-out: Akt3 Ki",1990 nM
same,Ki,p70S6K human enzyme; [8],1010 nM
same,Ki,p70S6K human enzyme; [9],1010 nM
same,Vz_F,[1]; mean n = 3,59.4 L/kg
same,AUC(0-t),[1]; [10],0.905 µM·h
same,Cmax,[1]; [11],783 nM
same,Tmax,[1]; [12],19.8 min
same,half-life,"[1]; male, CD Sprague Dawley",67.8 min
same,concentration at 15 min,[2],92 nM
